Earlier results in paper PMC13041344 (Antimicrobial Agents and Chemotherapy, 2026).

Conditions: humans; 2 g q8h as a 3-h infusion

Cmax: 46000 ng/mL
Structure (SMILES): C[C@@H](O)[C@H]1C(=O)N2C(C(=O)O)=C(S[C@@H]3CN[C@H](C(=O)N(C)C)C3)[C@H](C)[C@H]12 [MEM, meropenem]
